In patent US20020137929A1, “1 - (3-heterocyclylphenyl) isothiourea, -isourea, -guanidine and -amidine herbicidal agents” (Intellectual Property Department, BASF Aktiengesellschaft, priority 1998, published 2002):

Experiments:
GALAP (Galium) = assay: Postemergence herbicidal evaluation; assay type: in vivo, Galium aparine; conditions: postemergence
In short: (§1)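 First, seedlings were raised for around two weeks. Next, test material in 50/50 acetone/water containing 0.5% TWEEN 20 was sprayed through a nozzle at 40 psi, equivalent to about 0.0156–0.500 kg/ha. Finally, after 4–5 weeks in the greenhouse, plants were rated 0–9.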

AMBEL (Ragweed, Common) = assay: Postemergence herbicidal evaluation; assay type: in vivo, Ambrosia artemisifolia; conditions: postemergence
In short: as §1

[1] = system: TRZAWR (Wheat, Winter, cv Riband); assay: Postemergence herbicidal evaluation; assay type: in vivo, Triticum aestivum; conditions: postemergence
In short: as §1

[2] = system: CHEAL (Lambsquarters, Common); assay: Preemergence herbicidal evaluation; assay type: in vivo, Chenopodium album; conditions: rated 4-5 weeks after treatment, rating scale 0-9
Description: Results of herbicide evaluation are expressed on a rating scale (0-9). The scale is based upon a visual observation of plant stand, vigor, malformation, size, chlorosis and overall plant appearance as compared with a control.
The preemergence herbicidal activity of the test compounds of the present invention is exemplified by the following tests in which the seeds of a variety of monocotyledonous and dicotyledonous plants are separately mixed with potting soil and planted on top of approximately one inch of soil in separate pint cups. After planting, the cups are sprayed with the selected aqueous acetone solution containing test compound in sufficient quantity to provide the equivalent of about 0.0156 to 0.500 kg per hectare of test compound per cup. The treated cups are then placed on greenhouse benches, watered and cared for in accordance with conventional greenhouse procedures. From four to five weeks after treatment, the tests are terminated and each cup is examined and rated according to the rating system provided in Example 37.
The compounds evaluated are reported by compound number given in Example 37.

Compound	Herbicidal rating GALAP (GALAP (Galium); rate 0.0156 kg/ha)	Herbicidal rating GALAP (GALAP (Galium); rate 0.0313 kg/ha)	Herbicidal rating GALAP (GALAP (Galium); rate 0.0625 kg/ha)	Herbicidal rating AMBEL (AMBEL (Ragweed, Common); rate 0.0156 kg/ha)	Herbicidal rating AMBEL (AMBEL (Ragweed, Common); rate 0.0313 kg/ha)	Herbicidal rating AMBEL (AMBEL (Ragweed, Common); rate 0.0625 kg/ha)	Herbicidal rating TRZAWR ([1]; rate 0.0156 kg/ha)	Herbicidal rating TRZAWR ([1]; rate 0.0313 kg/ha)	Herbicidal rating TRZAWR ([1]; rate 0.0625 kg/ha)	Preemergence herbicidal rating CHEAL ([2]; rate 0.0625 kg/ha)	Preemergence herbicidal rating CHEAL ([2]; rate 0.1250 kg/ha)	Preemergence herbicidal rating CHEAL ([2]; rate 0.2500 kg/ha)	Preemergence herbicidal rating CHEAL ([2]; rate 0.0313 kg/ha)	Preemergence herbicidal rating CHEAL ([2]; rate 0.0156 kg/ha)
Cn1c(C(F)(F)F)cc(=O)n(-c2cc(N=C3SCC(=O)N3Cc3cccnc3)c(Cl)cc2F)c1=O [Compound 132, 3-{4-Chloro-2-fluoro-5-{[4-oxo-3-(3-pyridylmethyl)-2-thiazolidinylidene]amino}phenyl}-1-methyl-6-(trifluoromethyl)-2,4 (1H,3H)-pyrimidinedione]	2.0	2.0	3.0	5.0	9.0	9.0	3.0	3.5	4.0	9.0	9.0	9.0		
Cn1c(C(F)(F)F)cc(=O)n(-c2cc(N=C3SCC(=O)N3Cc3ccncc3)c(Cl)cc2F)c1=O [Compound 133, 3-{4-Chloro-2-fluoro-5-{[4-oxo-3-(4-pyridylmethyl)-2-thiazolidinylidene]amino}phenyl}-1-methyl-6-(trifluoromethyl)-2,4(1H,3H)-pyrimidinedione]	0.0	2.0	3.0	9.0	6.0	9.0	2.5	3.0	3.5	9.0	9.0	9.0	9.0	
Cn1c(C(F)(F)F)cc(=O)n(-c2cc(N=C3SCC(=O)N3Cc3cccc(Cl)c3)c(Cl)cc2F)c1=O [Compound 136, 3-{4-Chloro-5-{[3-(m-chlorobenzyl)-4-oxo-2-thiazolidinylidene]amino}-2-fluorophenyl}-1-methyl-6-(trifluoromethyl)-2,4(1H,3H)-pyrimidinedione]	1.0	2.0	3.0	9.0	9.0	9.0	2.5	3.0	3.0	9.0	9.0	9.0	9.0	2.0
COc1cc(CN2C(=O)CSC2=Nc2cc(-n3c(=O)cc(C(F)(F)F)n(C)c3=O)c(F)cc2Cl)cc(OC)c1OC [Compound 140, 3-{4-Chloro-2-fluoro-5-{[3-(3,4,5-trimethoxybenzyl)-4-oxo-2-thiazolidinylidene]amino}phenyl}-1-methyl-6-(trifluoromethyl)-2,4(1H,3H)-pyrimidinedione]	0.0	0.0	2.0	2.0	2.0	4.0	2.5	3.5	4.0	9.0	9.0	9.0		
Cn1c(C(F)(F)F)cc(=O)n(-c2cc(N=C3SCC(=O)N3Cc3ccc(Cl)c(Cl)c3)c(Cl)cc2F)c1=O [Compound 144, 3-{4-Chloro-5-{[3-(3,4-dichlorobenzyl)-4-oxo-2-thiazolidinylidene]amino}-2-fluorophenyl}-1-methyl-6-(trifluoromethyl)-2,4(1H,3H)-pyrimidinedione]	3.0	3.0	4.0	7.0	9.0	9.0	3.5	3.5	4.0	9.0	9.0	9.0	7.0	6.0
Cc1cc(C)cc(CN2C(=O)CSC2=Nc2cc(-n3c(=O)cc(C(F)(F)F)n(C)c3=O)c(F)cc2Cl)c1 [Compound 146, 3-{4-Chloro-5-{[3-(3,5-dimethylbenzyl)-4-oxo-2-thiazolidinylidene]amino}-2-fluorophenyl}-1-methyl-6-(trifluoromethyl)-2,4(1H,3H)-pyrimidinedione]	2.0	2.0	4.0	9.0	9.0	9.0	2.0	3.5	4.5	9.0	9.0	9.0	9.0	0.0
Cn1c(C(F)(F)F)cc(=O)n(-c2cc(N=C3SCC(=O)N3Cc3cc(Cl)cc(Cl)c3)c(Cl)cc2F)c1=O [Compound 150, 3-{4-Chloro-5-{[3-(3,5-dichlorobenzyl)-4-oxo-2-thiazolidinylidene]amino}-2-fluorophenyl}-1-methyl-6-(trifluoromethyl)-2,4(1H,3H)-pyrimidinedione]	1.0	2.0	4.0	7.0	9.0	9.0	3.5	3.5	3.5	9.0	9.0	9.0	9.0	
Cn1c(C(F)(F)F)cc(=O)n(-c2cc(N=C3SCC(=O)N3Cc3ccc(F)cc3)c(Cl)cc2F)c1=O [Compound 151, 3-{4-Chloro-2-fluoro-5-{[3-(p-fluorobenzyl)-4-oxo-2-thiazolidinylidene]amino}phenyl}-1-methyl-6-(trifluoromethyl)-2,4(1H,3H)-pyrimidinedione]	4.0	4.0	6.0	7.0	7.0	9.0	2.5	2.5	4.0	9.0	9.0	9.0	9.0	9.0
CCOC(=O)CN1C(=O)C(Br)SC1=Nc1cc(-n2c(=O)cc(C(F)(F)F)n(C)c2=O)c(F)cc1Cl (centres unmarked) [Compound 153, Ethyl 5-bromo-2-[{2-chloro-5-[3,6-dihydro-3-methyl-2,6-dioxo-4-(trifluoromethyl)-1(2H)-pyrimidinyl]-4-fluorophenyl}imino}-4-oxo-3-thiazolidineacetate]	0.0	0.0	0.0	0.0	1.0	1.0	2.0	2.0	3.0		1.0	7.0		
C=C1SC(=Nc2cc(-n3c(=O)cc(C(F)(F)F)n(C)c3=O)c(F)cc2Cl)N(CC(=O)OCC)C1=O [Compound 154]	3.0	3.0	4.0	3.0	9.0	9.0	3.5	3.5	4.0	9.0	9.0	9.0	9.0	9.0
